From patent EP0908457B1, “3-(1,2-benzisothiazol- and isoxazol-5-Y1)-2,4(1H,3H)-pyrimidinedione or thione and 3-(1,2-benzisothiazol- and isoxazol-5-y1)-4(3H)-pyrimidinone or thione herbicidal agents” (BASF AKTIENGESELLSCHAFT, priority 1997, dated 1999)

What was measured:
[1] = test system: Cyperus serotinus, Rottb.; experiment: Preemergence weed control under flooded paddy conditions, CYPSE (Flatsedge); type: in vivo; also: meaning of each grade not given here
Cyperus iria = experiment: Preemergence weed control under flooded paddy conditions, CYPIR (Rice Flatsedge); type: in vivo; conditions: flooded paddy; also: meaning of each grade not given here
Sagittaria pygmaea, L. = experiment: Preemergence weed control under flooded paddy conditions, SAGPY (Arrowhead (Pygmaea)); type: in vivo; conditions: flooded paddy; also: meaning of each grade not given here
[2] = test system: Oryza sativa, (L.) Tebonnet; experiment: Rice tolerance to post-transplant applications under flooded paddy conditions (Example 187), ORYSAT (Rice, Tebonnet); as to herbicidal effect rating ORYSAT: meaning of each grade not given here
[3] = test system: Echinochloa oryzoides (Ard.) Fritsch.; experiment: Preemergence weed control under flooded paddy conditions, ECHORC (Watergrass (Calif.)); type: in vivo; conditions: flooded paddy; also: meaning of each grade not given here
[4] = test system: Monochoria vaginalis, Presl.; experiment: Preemergence weed control under flooded paddy conditions, MOOVA (Monochoria); type: in vivo; conditions: flooded paddy; also: meaning of each grade not given here
[5] = Rate 0.0320 kg/ha, preemergence, rated 3-4 weeks after treatment
[6] = Rate 0.0620 kg/ha, preemergence, rated 3-4 weeks after treatment
[7] = Rate 0.1250 kg/ha, preemergence, rated 3-4 weeks after treatment
[8] = Rate 0.2500 kg/ha, preemergence, rated 3-4 weeks after treatment
[9] = Rate 0.5000 kg/ha, preemergence, rated 3-4 weeks after treatment
[10] = Rate 0.0320 kg/ha, rated 3-4 weeks after treatment
[11] = Rate 0.0620 kg/ha, rated 3-4 weeks after treatment
[12] = Rate 0.1250 kg/ha, rated 3-4 weeks after treatment
[13] = Rate 0.2500 kg/ha, rated 3-4 weeks after treatment
[14] = Rate 0.5000 kg/ha, rated 3-4 weeks after treatment
[15] = 0.0313 kg/ha, preemergence, rated three to four weeks after treatment
[16] = 0.0625 kg/ha, preemergence, rated three to four weeks after treatment
[17] = 0.1250 kg/ha, preemergence, rated three to four weeks after treatment
[18] = 0.2500 kg/ha, preemergence, rated three to four weeks after treatment
[19] = Rate 0.0320 kg/ha, preemergence weeds, rated three to four weeks after treatment
[20] = Rate 0.0620 kg/ha, preemergence weeds, rated three to four weeks after treatment
[21] = Rate 0.1250 kg/ha, preemergence weeds, rated three to four weeks after treatment
[22] = Rate 0.2500 kg/ha, preemergence weeds, rated three to four weeks after treatment
[23] = Rate 0.0320 kg/ha, rated three to four weeks after treatment
[24] = Rate 0.0620 kg/ha, rated three to four weeks after treatment
[25] = Rate 0.1250 kg/ha, rated three to four weeks after treatment
[26] = Rate 0.2500 kg/ha, rated three to four weeks after treatment

SMILES: Cc1ccc(OCC(=O)c2ccc(Cl)cc2)c(-c2nsc3ccc(-n4c(=O)cc(C(F)(F)F)n(C)c4=O)cc23)c1 [Example 538, 2,4(1H,3H)-Pyrimidinedione, 3-{3-{6-[(p-chlorophenacyl)oxy]-m-tolyl}-1,2-benzisothiazol-5-yl}-1-methyl-6-(trifluoromethyl)-]
- herbicidal effect rating, CYPSE [1, 5]: 0.0
- herbicidal effect rating, CYPSE [1, 6]: 0.0
- herbicidal effect rating, CYPSE [1, 7]: 0.0
- herbicidal effect rating, CYPSE [1, 8]: 0.0
- herbicidal effect rating, CYPSE [1, 9]: 0.0
- herbicidal effect rating, CYPIR (Cyperus iria; [5]): 0.0
- herbicidal effect rating, CYPIR (Cyperus iria; [6]): 0.0
- herbicidal effect rating, CYPIR (Cyperus iria; [7]): 0.0
- herbicidal effect rating, CYPIR (Cyperus iria; [8]): 0.0
- herbicidal effect rating, CYPIR (Cyperus iria; [9]): 9.0
- herbicidal effect rating, SAGPY (Sagittaria pygmaea, L.; [5]): 0.0
- herbicidal effect rating, SAGPY (Sagittaria pygmaea, L.; [6]): 0.0
- herbicidal effect rating, SAGPY (Sagittaria pygmaea, L.; [7]): 0.0
- herbicidal effect rating, SAGPY (Sagittaria pygmaea, L.; [8]): 0.0
- herbicidal effect rating, SAGPY (Sagittaria pygmaea, L.; [9]): 0.0
- herbicidal effect rating ORYSAT [2, 10]: 0.0
- herbicidal effect rating ORYSAT [2, 11]: 0.0
- herbicidal effect rating ORYSAT [2, 12]: 1.0
- herbicidal effect rating ORYSAT [2, 13]: 1.0
- herbicidal effect rating ORYSAT [2, 14]: 1.0
- herbicidal effect rating, ECHORC [3, 5]: 2.1
- herbicidal effect rating, ECHORC [3, 6]: 3.4
- herbicidal effect rating, ECHORC [3, 7]: 4.7
- herbicidal effect rating, ECHORC [3, 8]: 9.0
- herbicidal effect rating, ECHORC [3, 9]: 9.0
- herbicidal effect rating, MOOVA [4, 5]: 9.0
- herbicidal effect rating, MOOVA [4, 6]: 9.0
- herbicidal effect rating, MOOVA [4, 7]: 9.0
- herbicidal effect rating, MOOVA [4, 8]: 9.0
- herbicidal effect rating, MOOVA [4, 9]: 9.0

SMILES: C=CCOC(=O)COc1ccc(C)cc1-c1nsc2ccc(-n3c(=O)cc(C(F)(F)F)n(C)c3=O)cc12 [Example 69, Allyl {{2-{5-[3,6-dihydro-3-methyl-2,6-dioxo-4-(trifluoromethyl)-1(2H)-pyrimidinyl]-1,2-benzisothiazol-3-yl}-p-tolyl}oxy}acetate]
- herbicidal effect rating, CYPSE [1, 15]: 0.0
- herbicidal effect rating, CYPSE [1, 16]: 0.0
- herbicidal effect rating, CYPSE [1, 17]: 2.0
- herbicidal effect rating, CYPSE [1, 18]: 9.0
- herbicidal effect rating, CYPIR (Cyperus iria; [15]): 0.0
- herbicidal effect rating, CYPIR (Cyperus iria; [16]): 2.0
- herbicidal effect rating, CYPIR (Cyperus iria; [17]): 4.0
- herbicidal effect rating, CYPIR (Cyperus iria; [18]): 7.0
- herbicidal effect rating, SAGPY (Sagittaria pygmaea, L.; [15]): 0.0
- herbicidal effect rating, SAGPY (Sagittaria pygmaea, L.; [16]): 0.0
- herbicidal effect rating, SAGPY (Sagittaria pygmaea, L.; [17]): 2.0
- herbicidal effect rating, SAGPY (Sagittaria pygmaea, L.; [18]): 9.0
- herbicidal effect rating, ORYSAT (rice tolerance) ([2]; 0.0313 kg/ha, rated three to four weeks after treatment): 3.5
- herbicidal effect rating, ORYSAT (rice tolerance) ([2]; 0.0625 kg/ha, rated three to four weeks after treatment): 5.0
- herbicidal effect rating, ORYSAT (rice tolerance) ([2]; 0.1250 kg/ha, rated three to four weeks after treatment): 6.5
- herbicidal effect rating, ORYSAT (rice tolerance) ([2]; 0.2500 kg/ha, rated three to four weeks after treatment): 8.0
- herbicidal effect rating, ECHORC [3, 15]: 9.0
- herbicidal effect rating, ECHORC [3, 16]: 9.0
- herbicidal effect rating, ECHORC [3, 17]: 9.0
- herbicidal effect rating, ECHORC [3, 18]: 9.0
- herbicidal effect rating, MOOVA [4, 15]: 9.0
- herbicidal effect rating, MOOVA [4, 16]: 9.0
- herbicidal effect rating, MOOVA [4, 17]: 9.0
- herbicidal effect rating, MOOVA [4, 18]: 9.0

SMILES: C[C@@H](Br)[C@H](Br)c1nsc2ccc(-n3c(=O)cc(C(F)(F)F)n(C)c3=O)cc12 [Example 303, 2,4(1H,3H)-Pyrimidinedione, 3-[3-(1,2-dibromopropyl)-1,2-benzisothiazol-5-yl]-1-methyl-6-(trifluoromethyl)-, (1R,2R)-]
- herbicidal effect rating, CYPSE [1, 19]: 0.0
- herbicidal effect rating, CYPSE [1, 20]: 4.0
- herbicidal effect rating, CYPSE [1, 21]: 5.0
- herbicidal effect rating, CYPSE [1, 22]: 6.0
- herbicidal effect rating, CYPIR (Cyperus iria; [19]): 8.0
- herbicidal effect rating, CYPIR (Cyperus iria; [20]): 8.0
- herbicidal effect rating, CYPIR (Cyperus iria; [21]): 8.5
- herbicidal effect rating, CYPIR (Cyperus iria; [22]): 8.5
- herbicidal effect rating, SAGPY (Sagittaria pygmaea, L.; [19]): 2.0
- herbicidal effect rating, SAGPY (Sagittaria pygmaea, L.; [20]): 2.0
- herbicidal effect rating, SAGPY (Sagittaria pygmaea, L.; [21]): 8.5
- herbicidal effect rating, SAGPY (Sagittaria pygmaea, L.; [22]): 9.0
- herbicidal effect rating ORYSAT [2, 23]: 2.0
- herbicidal effect rating ORYSAT [2, 24]: 4.5
- herbicidal effect rating ORYSAT [2, 25]: 5.0
- herbicidal effect rating ORYSAT [2, 26]: 7.5
- herbicidal effect rating, ECHORC [3, 19]: 2.5
- herbicidal effect rating, ECHORC [3, 20]: 7.5
- herbicidal effect rating, ECHORC [3, 21]: 9.0
- herbicidal effect rating, ECHORC [3, 22]: 9.0
- herbicidal effect rating, MOOVA [4, 19]: 7.0
- herbicidal effect rating, MOOVA [4, 20]: 9.0
- herbicidal effect rating, MOOVA [4, 21]: 9.0
- herbicidal effect rating, MOOVA [4, 22]: 9.0

SMILES: CC(C)S(=O)(=O)NC(=O)COc1ccccc1-c1nsc2ccc(-n3c(=O)cc(C(F)(F)F)n(C)c3=O)cc12 [Example 555, Acetamide, 2-{o-{5-[3,6-dihydro-3-methyl-2,6-dioxo-4-(trifluoromethyl)-1(2H)-pyrimidinyl)-1,2-benzisothiazol-3-yl}phenoxy}-N-(isopropylsulfonyl)-]
- herbicidal effect rating, CYPSE [1, 5]: 4.0
- herbicidal effect rating, CYPSE [1, 6]: 6.0
- herbicidal effect rating, CYPSE [1, 7]: 8.0
- herbicidal effect rating, CYPSE [1, 8]: 8.0
- herbicidal effect rating, CYPSE [1, 9]: 9.0
- herbicidal effect rating, CYPIR (Cyperus iria; [5]): 4.0
- herbicidal effect rating, CYPIR (Cyperus iria; [6]): 6.0
- herbicidal effect rating, CYPIR (Cyperus iria; [7]): 9.0
- herbicidal effect rating, CYPIR (Cyperus iria; [8]): 9.0
- herbicidal effect rating, CYPIR (Cyperus iria; [9]): 3.0
- herbicidal effect rating, SAGPY (Sagittaria pygmaea, L.; [5]): 0.0
- herbicidal effect rating, SAGPY (Sagittaria pygmaea, L.; [6]): 0.0
- herbicidal effect rating, SAGPY (Sagittaria pygmaea, L.; [7]): 2.0
- herbicidal effect rating, SAGPY (Sagittaria pygmaea, L.; [8]): 7.0
- herbicidal effect rating, SAGPY (Sagittaria pygmaea, L.; [9]): 0.0
- herbicidal effect rating ORYSAT [2, 10]: 6.0
- herbicidal effect rating ORYSAT [2, 11]: 6.0
- herbicidal effect rating ORYSAT [2, 12]: 8.0
- herbicidal effect rating ORYSAT [2, 13]: 9.0
- herbicidal effect rating ORYSAT [2, 14]: 3.0
- herbicidal effect rating, ECHORC [3, 5]: 1.6
- herbicidal effect rating, ECHORC [3, 6]: 2.3
- herbicidal effect rating, ECHORC [3, 7]: 4.6
- herbicidal effect rating, ECHORC [3, 8]: 9.0
- herbicidal effect rating, ECHORC [3, 9]: 9.0
- herbicidal effect rating, MOOVA [4, 5]: 9.0
- herbicidal effect rating, MOOVA [4, 6]: 9.0
- herbicidal effect rating, MOOVA [4, 7]: 9.0
- herbicidal effect rating, MOOVA [4, 8]: 9.0
- herbicidal effect rating, MOOVA [4, 9]: 9.0

SMILES: COC(=O)COc1cccc(-c2nsc3ccc(-n4c(=O)cc(C(F)(F)F)n(C)c4=O)cc23)c1 [Example 332, Acetic acid, {m-{5-[3,6-dihydro-3-methyl-2,6-dioxo-4-(trifluoromethyl)-1(2H)-pyrimidinyl]-1,2-benzisothiazol-3-yl}phenoxy}-, methyl ester]
- herbicidal effect rating, CYPSE [1, 19]: 4.0
- herbicidal effect rating, CYPSE [1, 20]: 4.5
- herbicidal effect rating, CYPSE [1, 21]: 4.5
- herbicidal effect rating, CYPSE [1, 22]: 7.5
- herbicidal effect rating, CYPIR (Cyperus iria; [19]): 9.0
- herbicidal effect rating, CYPIR (Cyperus iria; [20]): 9.0
- herbicidal effect rating, CYPIR (Cyperus iria; [21]): 9.0
- herbicidal effect rating, CYPIR (Cyperus iria; [22]): 9.0
- herbicidal effect rating, SAGPY (Sagittaria pygmaea, L.; [19]): 3.0
- herbicidal effect rating, SAGPY (Sagittaria pygmaea, L.; [20]): 3.5
- herbicidal effect rating, SAGPY (Sagittaria pygmaea, L.; [21]): 6.5
- herbicidal effect rating, SAGPY (Sagittaria pygmaea, L.; [22]): 9.0
- herbicidal effect rating ORYSAT [2, 23]: 5.5
- herbicidal effect rating ORYSAT [2, 24]: 5.5
- herbicidal effect rating ORYSAT [2, 25]: 5.5
- herbicidal effect rating ORYSAT [2, 26]: 7.5
- herbicidal effect rating, ECHORC [3, 19]: 6.5
- herbicidal effect rating, ECHORC [3, 20]: 8.5
- herbicidal effect rating, ECHORC [3, 21]: 9.0
- herbicidal effect rating, ECHORC [3, 22]: 9.0
- herbicidal effect rating, MOOVA [4, 19]: 9.0
- herbicidal effect rating, MOOVA [4, 20]: 9.0
- herbicidal effect rating, MOOVA [4, 21]: 9.0
- herbicidal effect rating, MOOVA [4, 22]: 9.0
